Results: patent US20210283092A1, “METHODS AND USES OF […] DERIVATIVES” (priority 2018, published 2021)

Experiments:
[1] = test system: human neutrophils stimulated with MSU; assay: MSU-induced calcium mobilization in human neutrophils (Fura-2); format: cell-based; settings: for effect on MSU-induced calcium levels: 10 μM 28a, 39, 47a, 89, 1 μM 14, 3 μM 43, TPO at indicated concentrations; for lowest concentration significantly inhibiting the MSU-induced increase in intracellular calcium: 1 mg/ml MSU, 30 min pre-incubation; for type of dose response, cytoplasmic calcium: 0.01 to 10 μM
Protocol: Neutrophils were isolated from venous blood of healthy adult volunteers. Briefly, venous blood was obtained in tubes containing isocitrate, red blood cells were sedimented in 2% dextran and neutrophils were aseptically purified by centrifugation on Ficoll-Paque cushions. Contaminating erythrocytes were removed by hypotonic lysis and neutrophils were resuspended in Mg^2+-free HBSS containing 1.6 mM of CaCl2.
(FIG. 7D), D1=(28a) (FIGS. 7E and 7J), D2=(39) (FIG. 7F), D3=(47a) (FIGS. 7G and 7J), D4=(89) (FIG. 7H) prior to the addition of MSU (1 mg/ml).
The intracellular calcium concentration was determined with a spectrofluorometer and is expressed as the area under the curve (from the MSU injection up to 100 sec).
Changes in cytoplasmic calcium were then measured after the addition of MSU or HBSS (the negative control) using two excitation wavelengths at 340 and 380 nm and an emission wavelength of 510 nm. The free internal calcium concentration was estimated from the ratio of the fluorescence values obtained at 340 and 380 nm. The results are calculated as the area under the curve of the intracellular calcium concentration as a function of time (0-100 sec relative to stimulus addition).
Since one of the earliest molecular events in neutrophils that is initiated by MSU is the mobilization of intracellular calcium stores, the effect of (91) (CCl), (43) and (47a) was assessed on this early signalling event. Briefly, and as described in further detail above, human neutrophils were incubated with the fluorescent calcium indicator Fura-2 prior to incubation with a range of concentrations of (91) (CCl), (43) or (47a) and stimulated with MSU. Fura-2 monitors the increase in cytoplasmic calcium caused by its release from intracellular stores.

[2] = Concentration in circulating leukocytes of mice after subcutaneous injection
Protocol: Blood was harvested by cardiac puncture and centrifuged to obtain circulating leukocytes. The concentration of the compound in the leukocytes (FIGS. 11A and B) was determined by mass spectrometry. The concentration of (91) (CCl) or CH-35 (43) is expressed as the means of the amount of (91) (CCl) or CH-35 (43) measured in circulating leukocytes (ng/ml) of 5 mice harvested at the same time point.

[3] = test system: human neutrophils stimulated with MSU; assay: Superoxide production by human neutrophils (cytochrome C reduction); format: cell-based; settings: for lowest concentration inhibiting MSU-induced superoxide production: 1 mg/ml MSU
Protocol: The results are expressed as a ratio of the superoxide produced by the MSU control.
Superoxide production was measured using the reduction of cytochrome C assay. The difference between the optical density readings at 550 nm and 540 nm read within the first 10 minutes was multiplied by the extinction coefficient of cytochrome C to obtain the number of nmol O2 produced by 1×10^6 cells. The results are expressed as nmol O2/1×10^6 cells/ml.
An additional neutrophil effector function that is calcium-dependent, known to be activated by MSU and that can cause damage to the inflamed joint, is the production of ROS.

[4] = test system: MSU-induced leukocyte recruitment to the dorsal air-pouch; assay: Air-pouch model, compound given 5 min prior to MSU; format: in vivo, CD-1 mice; settings: mouse, in vivo
Protocol: (§1) An air-pouch was generated on the dorsum of mice over a period of seven days by injecting air subcutaneously. […] Seven hours after the administration of MSU, the exudate in the air pouches was harvested by two flushes with 2 ml and one with 1 ml of PBS+0.5 M EDTA and the number of recruited leukocytes determined by flow cytometry. Leukocytes were stained with an anti-CD45 and anti-Ly6 G antibody.

[5] = Acute toxicity study in rats; format: in vivo
[6] = Plasma concentration and half-life in mice after subcutaneous injection
Protocol: The concentration of the compound in the plasma (FIGS. 10A and B) was determined by mass spectrometry. The concentration of (91) (CCl) or CH-35 (43) is expressed as the means of the amount of (91) (CCl) or CH-35 (43) measured in the plasma (ng/ml) of 5 mice harvested at the same time point.

[7] = test system: atherosclerosis in LDLR KO mice; assay: Mouse model of atherosclerosis, high-fat diet; format: in vivo
Protocol: LDLR KO mice were randomly divided into 4 groups and either fed a control (CD) diet (group 1 & 2) or high-fat (group 3 & 4) diet. The high-fat (HF) diet contained 0.2% total cholesterol, 21% total fat by weight (42% kcal from fat), >60% of total fatty acids) and was high in sucrose (34% by weight). The animals and their feed were weighed every week.
Mice in group 2 & 4 were administered a dose of 0.5 μmol/kg CCl subcutaneously (s.c), 3 times a week for 8 weeks.
Blood was drawn from mice after the 8-week diet. Serum was prepared from the drawn blood and frozen until analysis. Serum triglycerides and cholesterol were measured in serum of mice by our Multidisciplinary and Microbiology Laboratory Service.
The aortic lesion ‘en face’ assay and Sudan IV staining was performed on aortas harvested from all mice. The percent lipid stained area in the aortic branch and the descending aorta was compared between mice using the ‘region of interest’ tool in ImageJ.
Blood was drawn from mice after the 8-week diet. Serum was prepared from the drawn blood and frozen until analysis. The levels of cytokines in the serum were measured by Luminex assay. The cytokines assayed were Eotaxin (CCL11), CCL21, G-CSF (CSF-3), RANKL, VEGF-A, IL-1 beta, IL-6 & MCP-1 (CCL2). These cytokines were chosen based on a cytokine signature that was reported to reflect the development of atherosclerosis in ApoE KO mice. The LDLR KO model was used since the inflammatory aspect of atherosclerosis is better represented in this model.

[8] = test system: human neutrophils stimulated with MSU; assay: IL-1 release by TNF-α primed human neutrophils (ELISA); format: cell-based; settings: 1 mg/ml MSU, 3 h
Protocol: (§2) Extracellular CXCL8/IL-8 or IL-1β were quantified by ELISA (Invitrogen). All samples were measured in duplicate.
The production and secretion of mature IL-1 requires two stimuli. Human neutrophils were, therefore, primed with TNF-α prior to stimulation with MSU. […] (FIG. 8H-J).

[9] = test system: MSU-induced leukocyte recruitment to the dorsal air-pouch; assay: Air-pouch model, compound given 1.5 hours after MSU; format: in vivo, mice; settings: for lowest dose significantly dampening MSU-induced leukocyte recruitment: subcutaneous 1.5 hours after MSU
Protocol: as §1

[10] = test system: human neutrophils stimulated with MSU; assay: CXCL8/IL-8 release by human neutrophils (ELISA); format: cell-based; settings: for lowest concentration giving significant decrease in MSU-induced release of IL-8: 1 mg/ml MSU, 3 h
Protocol: as §2
In addition, since IL-1 induces the expression of adhesion molecules on endothelial cells as well as the synthesis of pro-inflammatory cytokines, which together promote a massive recruitment of neutrophils, the ability of CCl (91) and CH-35 (43) to dampen the production of IL-1 was also assessed.

[11] = test system: human neutrophils stimulated with fMLP; assay: fMLP-induced increase in cytoplasmic calcium in human neutrophils; format: cell-based; settings: 10 μM compound, 10^−7 M fMLP
Protocol: The intracellular calcium concentration was determined with a spectrofluorometer and is expressed as the area under the curve.
To assess the specificity of CCl (91) towards neutrophil activation by MSU, it was determined whether CCl (91) was able to inhibit neutrophil responses towards an unrelated stimulus. A bacterial stimulus was chosen because neutrophil activation in response to this stimulus affects the survival of the host. Briefly, human neutrophils were incubated with the 10 μM CCl (91) prior to the activation with the bacterial peptide fMLF. […] In the presence of CCl (91), however, the cytoplasmic calcium response was unaffected.

[12] = 0.5 μmol/kg s.c. 3 times a week, 8 weeks, HF diet
[13] = en face assay, Sudan IV, HF+CCl

## COC(=O)N(C)[C@H]1CCc2cc(OC)c(OC)c(OC)c2-c2ccc(SC)c(=O)cc21 [TPO, reference compound]
[1]
  effect on MSU-induced calcium levels: inhibition at higher concentrations

## CCOc1cc2c(c(OC)c1OC)-c1ccc(SC)c(=O)cc1[C@@H](NC(=O)OC)CC2 [(91)]
[2]; mouse, in vivo, sc
  time of peak concentration in circulating leukocytes: 15 min
[3]
  lowest concentration inhibiting MSU-induced superoxide production: 0.1 µM
[3]; versus colchicine
  fold lower concentration than colchicine for inhibiting superoxide production: about 10 fold
[4]
  fold lower dose than colchicine inhibiting leukocyte recruitment: ~10 fold
[4]; sc
  dose inhibiting MSU-induced leukocyte recruitment: 0.5 µmol/kg
[5]; acute toxicity study in rats
  toxicity compared with colchicine: less toxic than colchicine
[5]; rats
  maximal tolerable dose relative to colchicine: 3 fold
[6]; 5 μmol/kg subcutaneous, mice
  persistence in the plasma: at least 2 hours
[6]; mouse, in vivo, sc
  fraction of peak plasma concentration by 60 minutes: less than ¼
  peak plasma concentration: 80 ng/mL
  time of peak plasma concentration: 15 min
[6]; mouse, in vivo, sc, 5 umol/kg
  half-life: 13.3 min
[7]; 0.5 μmol/kg s.c. 3 times a week, 8 weeks
  behaviour and tolerability: did not show any signs of suffering
[7]; [12]
  serum cholesterol versus HF diet alone: lower
  serum triglycerides versus HF diet alone: lower
[7]; Luminex, HF diet 8 weeks
  effect on serum cytokine levels: no significant effect
[7]; [13]
  percent of total area of the aortic arch covered by lesions versus HF diet: smaller percent
  percent of total area of the descending aorta covered by lesions versus HF diet: smaller percent
[7]; majority of mice in the HF+CCl group
  percent of total area of the descending aorta covered by lesions: less than 1%
[8]
  concentration at which MSU-induced IL-1 production is diminished (threshold): 0.1 µM
[9]; mouse, in vivo
  fold lower dose than effective dose of colchicine inhibiting leukocyte recruitment: about 10 fold
[9]
  lowest dose significantly dampening MSU-induced leukocyte recruitment: 0.5 µmol/kg
[10]
  lowest concentration giving significant decrease in MSU-induced release of IL-8: 0.1 µM
[10]; versus colchicine
  fold lower concentration than colchicine for inhibiting release of IL-8: about 10 fold
[1]; 10 μM
  effect on MSU-induced increase in cytoplasmic calcium at 10 μM: does not have a significant effect
[1]
  lowest concentration significantly inhibiting the MSU-induced increase in intracellular calcium: 0.1 µM
  type of dose response, cytoplasmic calcium: non-monotonic dose response
[1]; versus colchicine
  fold lower concentration than colchicine for inhibiting calcium mobilization: about 100 fold
[11]
  cytoplasmic calcium response to fMLF in presence of compound: unaffected

## CCCOc1cc2c(c(OC)c1OC)-c1ccc(SC)c(=O)cc1[C@@H](NC(C)=O)CC2 [(43), N-[(7S)-3-propoxy-1,2-dimethoxy-10-methylsulfanyl-9-oxo-5,6,7,9-tetrahydrobenzo [α]heptalen-7-yl]acetamide]
[2]; 5 μmol/kg subcutaneous, mice
  time of peak concentration in circulating leukocytes: 15 min
[3]
  lowest concentration inhibiting MSU-induced superoxide production: 0.1 µM
[6]; 5 μmol/kg subcutaneous, mice
  time after injection at which plasma level dropped to undetectable: about 50 minutes
  time of peak plasma concentration: 15 min
[8]
  concentration at which MSU-induced IL-1 production is diminished (threshold): 1 µM
[9]
  lowest dose significantly dampening MSU-induced leukocyte recruitment: 2.5 µmol/kg
[10]
  lowest concentration giving significant decrease in MSU-induced release of IL-8: 0.1 µM
[1]
  effect on MSU-induced calcium levels: neutrophil-inhibitory effects
  lowest concentration significantly inhibiting the MSU-induced increase in intracellular calcium: 0.1 µM
  type of dose response, cytoplasmic calcium: classical monotonic dose response

## COc1cc2c(c(OCc3ccccc3Cl)c1OC)-c1ccc(OC)c(=O)cc1[C@@H](NC(C)=O)CC2 [(14), N-[(7S)-2,3,10-trimethoxy-9-oxo-1-((phenyl(2-chloro))methoxy)-5,6,7,9-tetrahydrobenzo[α]heptalen-7-yl] acetamide]
[1]
  effect on MSU-induced calcium levels: neutrophil-inhibitory effects

## COC(=O)N[C@H]1CCc2cc(O)c(OC)c(OC)c2-c2ccc(SC)c(=O)cc21 [(89)]
[1]
  effect on MSU-induced calcium levels: exception

## COc1cc2c(c(OC)c1OC)-c1ccc(SC)c(=O)cc1[C@@H](NC(C)=O)CC2 [(39), N-[(7S)-1,2,3-trimethoxy-10-methylsulfanylo-9-oxo-5,6,7,9-tetrahydrobenzo [α]heptalen-7-yl]acetamide]
[1]
  effect on MSU-induced calcium levels: neutrophil-inhibitory effects
